Experimental data published in patent US20130224236A1, “HSV-1 EPITOPES AND METHODS FOR USING SAME” (UNIVERSITY OF WASHINGTON, priority 2010, published 2013).

B1: UL21: HSV-1 protein UL21 (protein)
chain: MELSYATTMHYRDVVFYVTTDRNRAYFVCGGCVYSVGRPCASQPGEIAKFGLVVRGTGPDDRVVANYVRSELRQRGLQDVRPIGEDEVFLDSVCLLNPNVSSELDVINTNDVEVLDECLAEYCTSLRTSPGVLISGLRVRAQDRIIELFEHPTIVNVSSHFVYTPSPYVFALAQAHLPRLPSSLEALVSGLFDGIPAPRQPLDAHNPRTDVVITGRRAPRPIAGSGAGSGGAGAKRATVSEFVQVKHIDRVGPAGVSPAPPPNNTDSSSLVPGAQDSAPPGPTLRELWWVFYAADRALEEPRADSGLTREEVRAVRGFREQAWKLFGSAGAPRAFIGAALGLSPLQKLAVYYYIIHRERRLSPFPALVRLVGRYTQRHGLYVPRPDDPVLADAINGLFRDALAAGTTAEQLLMFDLLPPKDVPVGSDVQADSTALLRFIESQRLAVPGGVISPEHVAYLGAFLSVLYAGRGRMSAATHTARLTGVTSLVLAVGDVDRLSAFDRGAAGAASRTRAAGYLDVLLTVRLARSQHGQSV
modifications: human herpesvirus 1
notes: HSV-1 protein UL21
B2: UL40: HSV-1 protein UL40 (protein)
chain: MDSAAPALSPALTALTDQSATADLAIQIPKCPDPERYFYTSQCPDINHLRSLSILNRWLETELVFVGDEEDVSKLSEGELSFYRFLFAFLSAADDLVTENLGGLSGLFEQKDILHYYVEQECIEVVHSRVYNIIQLVLFHNNDQARREYVAGTINHPAIRAKVDWLEARVRECASVPEKFILMILIEGIFFAASFAAIAYLRTNNLLRVTCQSNDLISRDEAVHTTASCYIYNNYLGGHAKPPPDRVYGLFRQAVEIEIGFIRSQAPTDSHILSPAALAAIENYVRFSADRLLGLIHMKPLFSAPPPDASFPLSLMSTDKHTNFFECRSTSYAGAVVNDL
modifications: human herpesvirus 1
notes: HSV-1 protein UL40
B3: US1/1.5: HSV-1 protein US1/ICP22 (protein)
chain: MADISPGAFAPCVKARRPALRSPPLGTRKRKRPSRPLSSESEVESDTALESEVESETASDSTESGDQDEAPRIGGRRAPRRLGGRFFLDMSAESTTGTETDASVSDDPDDTSDWSYDDIPPRPKRARVNLRLTSSPDRRDGVIFPKMGRVRSTRETQPRAPTPSAPSPNAMLRRSVRQAQRRSSARWTPDLGYMRQCINQLFRVLRVARDPHGSANRLRHLIRDCYLMGYCRARLAPRTWCRLLQVSGGTWGMHLRNTIREVEARFDATAEPVCKLPCLETRRYGPECDLSNLEIHLSATSDDEISDATDLEAAGSDHTLASQSDTEDAPSPVTLETPEPRGSLAVRLEDEFGEFDWTPQEGSQPWLSAVVADTSSVERPGPSDSGAGRAAEDRKCLDGCRKMRFSTACPYPCSDTFLRP
modifications: human herpesvirus 1
notes: HSV-1 protein US1/ICP22
B4: UL39: HSV-1 UL39/ICP6/10, large subunit of ribonucleotide reductase (protein)
chain: MASRPAASSPVEARAPVGGQEAGGPSAATQGEAAGAPLAHGHHVYCQRVNGVMVLSDKTPGSASYRISDNNFVQCGSNCTMIIDGDVVRGRPQDPGAAASPAPFVAVTNIGAGSDGGTAVVAFGGTPRRSAGTSTGTQTADVPTEALGGPPPPPRFTLGGGCCSCRDTRRRSAVFGGEGDPVGPAEFVSDDRSSDSDSDDSEDTDSETLSHASSDVSGGATYDDALDSDSSSDDSLQIDGPVCRPWSNDTAPLDVCPGTPGPGADAGGPSAVDPHAPTPEAGAGLAADPAVARDDAEGLSDPRPRLGTGTAYPVPLELTPENAEAVARFLGDAVNREPALMLEYFCRCAREETKRVPPRTFGSPPRLTEDDFGLLNYALVEMQRLCLDVPPVPPNAYMPYYLREYVTRLVNGFKPLVSRSARLYRILGVLVHLRIRTREASFEEWLRSKEVALDFGLTERLREHEAQLVILAQALDHYDCLIHSTPHTLVERGLQSALKYEEFYLKRFGGHYMESVFQMYTRIAGFLACRATRGMRHIALGREGSWWEMFKFFFHRLYDHQIVPSTPAMLNLGTRNYYTSSCYLVNPQATTNKATLRAITSNVSAILARNGGIGLCVQAFNDSGPGTASVMPALKVLDSLVAAHNKESARPTGACVYLEPWHTDVRAVLRMKGVLAGEEAQRCDNIFSALWMPDLFFKRLIRHLDGEKNVTWTLFDRDTSMSLADFHGEEFEKLYQHLEVMGFGEQIPIQELAYGIVRSAATTGSPFVMFKDAVNRHYIYDTQGAAIAGSNLCTEIVHPASKRSSGVCNLGSVNLARCVSRQTFDFGRLRDAVQACVLMVNIMIDSTLQPTPQCTRGNDNLRSMGIGMQGLHTACLKLGLDLESAEFQDLNKHIAEVMLLSAMKTSNALCVRGARPFNHFKRSMYRAGRFHWERFPDARPRYEGEWEMLRQSMMKHGLRNSQFVALMPTAASAQISDVSEGFAPLFTNLFSKVTRDGETLRPNTLLLKELERTFSGKRLLEVMDSLDAKQWSVAQALPCLEPTHPLRRFKTAFDYDQKLLIDLCADRAPYVDHSQSMTLYVTEKADGTLPASTLVRLLVHAYKRGLKTGMYYCKVRKATNSGVFGGDDNIVCMSCAL
modifications: human herpesvirus 1
notes: HSV-1 UL39/ICP6/10, large subunit of ribonucleotide reductase
B5: UL13: HSV-1 protein UL13 (protein)
chain: MDESRRQRPAGHVAANLSPQGARQRSFKDWLASYVHSNPHGASGRPSGPSLQDAAVSRSSHGSRHRSGLRERLRAGLSRWRMSRSSHRRASPETPGTAAKLNRPPLRRSQAALTAPPSSPSHILTLTRIRKLCSPVFAINPALHYTTLEIPGARSFGGSGGYGDVQLIREHKLAVKTIKEKEWFAVELIATLLVGECVLRAGRTHNIRGFIAPLGFSLQQRQIVFPAYDMDLGKYIGQLASLRTTNPSVSTALHQCFTELARAVVFLNTTCGISHLDIKCANILVMLRSDAVSLRRAVLADFSLVTLNSNSTIARGQFCLQEPDLKSPRMFGMPTALTTANFHTLVGHGYNQPPELLVKYLNNERAEFTNHRLKHDVGLAVDLYALGQTLLELVVSVYVAPSLGVPVTRFPGYQYFNNQLSPDFALALLAYRCVLHPALFVNSAETNTHGLAYDVPEGIRRHLRNPKIRRAFTDRCINYQHTHKAILSSVALPPELKPLLVLVSRLCHTNPCARHALS
modifications: human herpesvirus 1
notes: HSV-1 protein UL13
B6: UL53: HSV-1 protein UL53/Glycoprotein K (protein)
chain: MLAVRSLQHLSTVVLITAYGLVLVWYTVFGASPLHRCIYAVRPTGTNNDTALVWMKMNQTLLFLGAPTHPPNGGWRNHAHICYANLIAGRVVPFQVPPDAMNRRIMNVHEAVNCLETLWYTRVRLVVVGWFLYLAFVALHQRRCMFGVVSPAHKMVAPATYLLNYAGRIVSSVFLQYPYTKITRLLCELSVQRQNLVQLFETDPVTFLYHRPAIGVIVGCELMLRFVAVGLIVGTAFISRGACAITYPLFLTITTWCFVSTIGLTELYCILRRGPAPKNADKAAAPGRSKGLSGVCGRCCSIILSGIAVRLCYIAVVAGVVLVALHYEQEIQRRLFDV
modifications: human herpesvirus 1
notes: HSV-1 protein UL53/Glycoprotein K

Tests used:
Type in all cases: cell-based, human
[1] = test system: bulk polyclonal CD8 effector cells; assay: ORFeome CD8 screen: IFN-γ ELISA after adding CD8 responders to Cos-7 aAPC co-transfected with HLA class I cDNA and HSV-1 ORF; conditions: for CD8 IFN-γ responses to HSV-1 polypeptide (ORF level): amongst the 7 participants, HLA A, B, C screens; for HLA A*0101-bearing donors with CD8 T cells recognizing the ORF: primary co-transfection screens with shared HLA cDNA; for number of distinct restricting HLA alleles: CD8 recognition; for number of persons with CD8 recognition of the ORF: of 7 persons; for number of HLA-level screens in which the ORF was recognized: of 39 screens; for CD8 reactivity restricted by HLA A*0101: participant 1
[2] = test system: Bulk-expanded HSV-1-reactive CD4 T-cell lines; assay: ORFeome CD4 screen: 3H thymidine proliferation to recombinant HSV-1 proteins; conditions: of 11 persons
[3] = test system: CD4+ clone 9447.28 specific for HSV-1 VP22 AA 199-211; assay: 3H thymidine proliferation check of expressed VP22 with a CD4 T-cell clone; conditions: pEXP203 in vitro expressed protein
Description: For expression, pEXP203 plasmids were prepared from a 3 ml ampicillin culture of transformed E. coli using a silica method (Qiagen) and mass determined by spectrophotometry. Protein expression used 50 μl volumes of the Expressionway E. coli system (Invitrogen). To check expression, 1 μl of reaction product was spotted onto nitrocellulose membranes (Whatman, Piscataway, N.J.), air-dried, blocked with 1% blocking reagent (Roche) diluted in TBS (50 mM Tris, 150 mM NaCl, pH 7.5), probed with anti-6-His mAb (Roche) diluted 1:500 in TBS-0.1% Tween −20 (TBS-T) (Roche), washed with TBS-T, incubated with horseradish peroxidase-conjugated anti-mouse IgG (Promega) diluted 1:2500 in TBS-T, washed with TBS-T, and developed with TMB substrate (Promega). Proteins failing to display a spot indicating anti-6-His binding were re-synthesized. For HSV-1 protein VP22 (gene UL49), expression was checked by triplicate, 3-day ^3H thymidine proliferation assay using cornea-derived CD4+ clone 9447.28 specific for HSV-1 VP22 AA 199-211 (18) as responders (2×10^4/well), autologous 3,300 rad γ-irradiated PBMC as APC (10^5/well), and HSV-1 VP22 or controls expressed in the pEXP203 system.
We expressed proteins covering the large majority of the HSV-1 proteome using an in vitro bacterial expression system.

Row | Molecule | CD8 IFN-γ responses to HSV-1 polypeptide (ORF level) [1] | also measured
1 | RL2/ICP0: HSV-1 protein RL2/ICP0 | elicit CD8 IFN-γ responses | CD8 IFN-γ responses to HSV-1 polypeptide (ORF level) ([1]; listed as ICP0): detected
2 | RS1/ICP4: HSV-1 protein RS1/ICP4 | elicit CD8 IFN-γ responses | CD8 IFN-γ responses to HSV-1 polypeptide (ORF level) ([1]; listed as ICP4): detected
3 | UL1: HSV-1 protein UL1/Glycoprotein L | elicit CD8 IFN-γ responses | HLA A*0101-bearing donors with CD8 T cells recognizing the ORF [1]: each HLA A*0101-bearing donor
4 | UL25: HSV-1 protein UL25 | elicit CD8 IFN-γ responses | 
5 | UL29: HSV-1 protein UL29/ICP8 | elicit CD8 IFN-γ responses | 
6 | UL31: HSV-1 protein UL31 | elicit CD8 IFN-γ responses | 
7 | UL37: HSV-1 protein UL37/ICP32 | elicit CD8 IFN-γ responses | 
8 | UL41: HSV-1 protein UL41/vhs | elicit CD8 IFN-γ responses | 
9 | UL46: HSV-1 tegument protein VP11/12 encoded by gene UL46 | elicit CD8 IFN-γ responses | number of distinct restricting HLA alleles [1]: 7; number of persons with CD8 recognition of the ORF [1]: 5; number of HLA-level screens in which the ORF was recognized [1]: 10; number of persons with CD4 recognition of the protein [2]: 11
10 | UL47: HSV-1 protein UL47/VP13/14 | elicit CD8 IFN-γ responses | 
11 | UL48: HSV-1 protein UL48/VP16/ICP25 | elicit CD8 IFN-γ responses | CD8 reactivity restricted by HLA A*0101 [1]: strong reactivity; HLA A*0101-bearing donors with CD8 T cells recognizing the ORF [1]: each HLA A*0101-bearing donor
12 | UL49: HSV-1 protein UL49/VP22 | elicit CD8 IFN-γ responses | responses of VP22-specific CD4 T-cell clone to expressed protein [3]: strong, specific responses
13 | UL54: HSV-1 protein UL54 ICP27 | elicit CD8 IFN-γ responses | 
14 | US7: HSV-1 protein US7/Glycoprotein I | elicit CD8 IFN-γ responses | 
15 | B1 | elicit CD8 IFN-γ responses | 
16 | B2 | elicit CD8 IFN-γ responses | 
17 | B3 | elicit CD8 IFN-γ responses | CD8 IFN-γ responses to HSV-1 polypeptide (ORF level) ([1]; listed as ICP22): detected
18 | B4 | elicit CD8 IFN-γ responses | number of distinct restricting HLA alleles [1]: 7; number of persons with CD8 recognition of the ORF [1]: 6; number of HLA-level screens in which the ORF was recognized [1]: 11; CD8 reactivity restricted by HLA A*0101 [1]: strong reactivity
19 | B5 | elicit CD8 IFN-γ responses | 
20 | B6 | elicit CD8 IFN-γ responses | 
